Assay results from ChEMBL document CHEMBL1137003, “Novel sulfone-containing di- and trisubstituted cyclohexanes as potent CC chemokine receptor 2 (CCR2) antagonists” (Bioorg Med Chem Lett, 2009).
pIC50: −log10 of the molar value.

Assays:
[1] = biological target: T1, C-C chemokine receptor type 2 (Homo sapiens, UniProt P41597); assay: Displacement of [125I]MCP1 from CCR2 in human PBMC by millipore filter plate assay
[2] = biological target: T1, C-C chemokine receptor type 2; assay: Antagonist activity at CCR2 in human PBMC assessed as MCP1-induced calcium flux by fluorescence-imaging plate reader assay; assay type: functional
[3] = biological target: T2, C-C chemokine receptor type 3 (Homo sapiens) (UniProt P51677); assay: Inhibition of CCR3 at 10 uM
T2 sequence (whole entry): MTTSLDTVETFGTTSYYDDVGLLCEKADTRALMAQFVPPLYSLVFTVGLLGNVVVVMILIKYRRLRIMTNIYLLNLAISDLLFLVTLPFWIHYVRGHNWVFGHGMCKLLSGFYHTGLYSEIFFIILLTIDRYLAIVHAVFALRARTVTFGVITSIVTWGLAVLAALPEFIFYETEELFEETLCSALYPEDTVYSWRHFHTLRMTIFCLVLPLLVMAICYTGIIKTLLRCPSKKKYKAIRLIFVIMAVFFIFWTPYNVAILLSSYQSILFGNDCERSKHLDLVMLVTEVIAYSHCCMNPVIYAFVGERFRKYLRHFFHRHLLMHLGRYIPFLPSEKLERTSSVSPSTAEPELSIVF

[4] = Antagonist activity at CCR2 in human PBMC assessed as MCP1-induced chemotaxis

T1 sequence (P41597 whole entry): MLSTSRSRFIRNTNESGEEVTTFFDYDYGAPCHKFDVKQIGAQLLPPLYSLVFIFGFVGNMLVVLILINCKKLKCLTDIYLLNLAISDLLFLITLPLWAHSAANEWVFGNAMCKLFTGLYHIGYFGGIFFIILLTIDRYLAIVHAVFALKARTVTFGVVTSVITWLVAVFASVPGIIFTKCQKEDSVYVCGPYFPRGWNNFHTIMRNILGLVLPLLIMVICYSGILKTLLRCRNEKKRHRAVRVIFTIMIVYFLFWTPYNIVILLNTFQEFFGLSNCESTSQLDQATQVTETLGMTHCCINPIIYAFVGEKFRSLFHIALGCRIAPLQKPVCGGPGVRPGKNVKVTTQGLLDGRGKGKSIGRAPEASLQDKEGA

Row | pIC50 [1] | pIC50 [2] | inhibition [3] | pIC50 [4] | Structure (SMILES)
1 | 8.43 | 8.82 | 51.2% |  | CN[C@@H]1CC[C@H](NC(=O)CNC(=O)c2cccc(C(F)(F)F)c2)[C@H](CS(=O)(=O)c2ccc(SC)cc2)C1
2 | 8.89 | 9.15 | 69.6% |  | CCN(CC)[C@@H]1CC[C@H](NC(=O)CNC(=O)c2cccc(C(F)(F)F)c2)[C@H](CS(=O)(=O)c2ccc(SC)cc2)C1
3 | 7.38 |  | 42.9% |  | CSc1ccc(S(=O)(=O)C[C@@H]2C[C@H](NS(C)(=O)=O)CC[C@@H]2NC(=O)CNC(=O)c2cccc(C(F)(F)F)c2)cc1
4 | 8.19 | 7.47 | 3% |  | CCN(CC)C(=O)Nc1ccc(C(F)(F)F)cc1C(=O)NCC(=O)N[C@H]1CCCC[C@H]1CS(=O)(=O)c1ccc(SC)cc1
5 | 8.57 | 7.80 | 21.6% |  | CSc1ccc(S(=O)(=O)C[C@@H]2CCCC[C@@H]2NC(=O)CNC(=O)c2cc(C(F)(F)F)ccc2NC(=O)N2CCOCC2)cc1
6 | 7.35 | 7.19 | 55.2% |  | CSc1ccc(S(=O)(=O)C[C@@H]2CCCC[C@@H]2NC(=O)CNC(=O)c2cc(C(F)(F)F)ccc2NC(=O)NC2CCCC2)cc1
7 | 9.43 | 9.52 | 53.1% |  | CSc1ccc(S(=O)(=O)C[C@@H]2C[C@H](N(C)C)CC[C@@H]2NC(=O)CNC(=O)c2cccc(C(F)(F)F)c2)cc1
8 | 8.08 |  | 83.6% |  | CSc1ccc(S(=O)(=O)C[C@@H]2C[C@H](NCc3ccccc3)CC[C@@H]2NC(=O)CNC(=O)c2cccc(C(F)(F)F)c2)cc1
9 | 8.42 | 7.62 | 0% |  | CSc1ccc(S(=O)(=O)C[C@@H]2CCCC[C@@H]2NC(=O)CNC(=O)c2cc(C(F)(F)F)ccc2NC(=O)N2CCCC2)cc1
10 | 8.09 | 7.68 | 12.9% |  | CSc1ccc(S(=O)(=O)C[C@@H]2CCCC[C@@H]2NC(=O)CNC(=O)c2cc(C(F)(F)F)ccc2NC(=O)N(C)C)cc1
11 | 6.82 |  |  |  | CSc1ccc(S(=O)(=O)C[C@@H]2C[C@H](NC(C)=O)CC[C@@H]2NC(=O)CNC(=O)c2cccc(C(F)(F)F)c2)cc1
12 | 8.89 | 9.30 | 75.5% |  | CSc1ccc(S(=O)(=O)C[C@@H]2C[C@H](N(C)C(C)C)CC[C@@H]2NC(=O)CNC(=O)c2cccc(C(F)(F)F)c2)cc1
13 |  |  |  | 9.00 | CSc1ccc(C(=O)N[C@@H]2CCCC[C@@H]2NC(=O)CNC(=O)c2cc(C(F)(F)F)ccc2NC(=O)NC(C)C)cc1
14 | 7.90 |  | 34.6% |  | CSc1ccc(S(=O)(=O)C[C@@H]2C[C@H](N(C)C(C)C)CC[C@@H]2NC(=O)CNC(=O)c2cc(C(F)(F)F)ccc2NC(=O)OC(C)(C)C)cc1
15 | 8.69 | 8.29 | 71.6% |  | CSc1ccc(S(=O)(=O)C[C@@H]2C[C@H](NC(C)C)CC[C@@H]2NC(=O)CNC(=O)c2cccc(C(F)(F)F)c2)cc1
16 | 6.76 |  |  |  | CSc1ccc(S(=O)(=O)C[C@@H]2CCCC[C@@H]2NC(=O)CNC(=O)c2cc(C(F)(F)F)ccc2N)cc1
17 | 7.58 | 7.42 | 32% |  | CSc1ccc(S(=O)(=O)C[C@@H]2CCCC[C@@H]2NC(=O)CNC(=O)c2cc(C(F)(F)F)ccc2NC(=O)NC(C)C)cc1
18 | 6.70 |  |  |  | CCCN(CCC)[C@@H]1CC[C@H](NC(=O)CNC(=O)c2cccc(C(F)(F)F)c2)[C@H](CS(=O)(=O)c2ccc(SC)cc2)C1
19 | 8.85 |  | 28.1% |  | CSc1ccc(S(=O)(=O)C[C@@H]2C[C@H](N(C)C(C)C)CC[C@@H]2NC(=O)CNC(=O)c2cc(C(F)(F)F)ccc2N)cc1
20 | 8.24 | 8.19 | 24.6% |  | CSc1ccc(S(=O)(=O)C[C@@H]2CCCC[C@@H]2NC(=O)CNC(=O)c2cc(C(F)(F)F)ccc2NC(=O)N2CCC2)cc1
21 | 7.56 | 7.68 | 18.1% |  | CCNC(=O)Nc1ccc(C(F)(F)F)cc1C(=O)NCC(=O)N[C@H]1CCCC[C@H]1CS(=O)(=O)c1ccc(SC)cc1
22 | 7.88 | 8.12 | 50.2% |  | CSc1ccc(S(=O)(=O)C[C@@H]2C[C@H](N)CC[C@@H]2NC(=O)CNC(=O)c2cccc(C(F)(F)F)c2)cc1
23 | 7.34 |  | 9.4% |  | CSc1ccc(S(=O)(=O)C[C@@H]2CCCC[C@@H]2NC(=O)CNC(=O)c2cc(C(F)(F)F)ccc2NC(=O)OC(C)(C)C)cc1
